Reference: patent US5795882A, “Method of treating prostatic diseases using delayed and/or sustained release vitamin D formulations” (Bone Care International, Inc., priority 1996, dated 1998)

Assays:
[1] = Equilibration of previtamin to vitamin form during binding incubation (HPLC); format: physicochemical; details: end of the VDR binding incubation, read-out: fraction equilibrated to the vitamin form
[2] = Pharmacokinetics of 1α,25-(OH)2 D3 in vitamin D-deficient rats after oral dosing (Example 4); format: in vivo, rat; details: single oral dose, 2-48 h
Protocol: One group is killed 8 hours after dosing with the vehicle. […] The blood is collected and analyzed for 1α,25-(OH)2 D3 levels.

[3] = Blood level of 1α,25-(OH)2 D3 in vitamin D-deficient rats after oral dosing (Example 3); format: in vivo, rat; details: oral 0.25 μg/kg, 4 h
Protocol: Male weanling rats are fed a diet deficient in vitamin D and with normal calcium (0.47%). […] Four hours after administration, the rats are killed and their blood level of 1α,25-(OH)2 D3 is measured using a standard technique.

[4] = Comparison of oral bioavailability in rachitic rats (Example 5); format: in vivo, rat; details: oral, 12 h
Protocol: Three-week-old rats were maintained on a vitamin D-deficient diet containing normal levels of calcium and phosphorus for 3-6 weeks until marked hypocalcemia was observed. […] A control group received only the vehicle. For all treatment groups, blood was obtained at 12 hours postdosing, and analyzed for serum levels of the vitamin form.

[5] = In vitro thermal conversion of 1α-hydroxyprevitamin D to 1α-hydroxyvitamin D; format: physicochemical; details: in ethanol, 37° C.
Protocol: A series of experiments were conducted which address the in vitro conversion of previtamin to vitamin for three 1α-hydroxyprevitamin D's: 1α-hydroxyprevitamin D2, 1α,24-dihydroxyprevitamin D2 and 1α-hydroxyprevitamin D3. Each 1α-hydroxyprevitamin D was dissolved in ethanol, incubated at 37° C. in a water bath, and samples taken at two-hour intervals. An analytical HPLC separation was performed on each sample to quantify the thermal conversion of the previtamin to the vitamin form. The data collected were normalized to account for the presence of any vitamin form in the initial formulation (≤10%). The results are presented in FIG. 1 which is a plot of % previtamin versus time in hours. Linear regression lines were generated for each previtamin.

## CC1=C(/C=C\C2=CCC[C@]3(C)[C@@H]([C@H](C)CCCC(C)(C)O)CC[C@@H]23)C[C@@H](O)C[C@@H]1O [1α,25-(OH)2 preD3, 1α,25-dihydroxyprevitamin D3]
[1]
  degraded: ~2%
[2]
  1α,25-(OH)2 D3 serum levels: increased 1α,25-(OH)2 D3 serum levels
  time profile of serum 1α,25-(OH)2 D3 increase versus dosing with 1α,25-(OH)2 D3: more gradual and sustained for a greater duration
[3]
  blood level of 1α,25-(OH)2 D3 versus control: significantly elevated
[4]
  oral bioavailability versus 1α,25-(OH)2 D3: greater bioavailability than the active form of the vitamin
[5]
  half-life: 17.7 h
